Legend:
[1] = tested on: Liver microsome; assay: Intrinsic clearance in human liver microsomes incubated for 5 mins prior to UDPGA addition measured after 90 mins; format: ADME; conditions: 1.5 h
[2] = tested on: Liver microsome; assay: Drug metabolism in human liver microsomes assessed as IRI-O-5-monoglucuronide formation incubated for 5 mins prior to UDPGA addition measured after 90 mins by Eadie-Hoftsee plot analysis; format: ADME; conditions: 1.5 h
[3] = target: Liver microsome; assay: Drug metabolism in Sprague-Dawley rat liver microsomes assessed as substrate inhibition of IRI-O-5-monoglucuronide formation incubated for 5 mins prior to UDPGA addition measured after 90 mins by Eadie-Hoftsee plot analysis; format: ADME
[4] = Drug metabolism in pig liver microsomes assessed as substrate inhibition of IRI-O-5-monoglucuronide formation incubated for 5 mins prior to UDPGA addition measured after 90 mins by Eadie-Hoftsee plot analysis; format: ADME, Sus scrofa
[5] = tested on: Liver microsome; assay: Drug metabolism in human liver microsomes assessed as IRI-O-4'-monoglucuronide formation incubated for 5 mins prior to UDPGA addition measured after 90 mins by Eadie-Hoftsee plot analysis; format: ADME; conditions: 1.5 h
[6] = target: T1, UDP-glucuronosyltransferase 1A9 (Homo sapiens, UniProt O60656); assay: Drug metabolism assessed as human recombinant UGT1A9-mediated irilone-O-5-monoglucuronide formation incubated for 5 mins prior to UDPGA addition measured after 90 mins by HPLC-DAD analysis; format: ADME; conditions: recombinant enzyme, 1.5 h
T1 sequence (O60656 whole entry): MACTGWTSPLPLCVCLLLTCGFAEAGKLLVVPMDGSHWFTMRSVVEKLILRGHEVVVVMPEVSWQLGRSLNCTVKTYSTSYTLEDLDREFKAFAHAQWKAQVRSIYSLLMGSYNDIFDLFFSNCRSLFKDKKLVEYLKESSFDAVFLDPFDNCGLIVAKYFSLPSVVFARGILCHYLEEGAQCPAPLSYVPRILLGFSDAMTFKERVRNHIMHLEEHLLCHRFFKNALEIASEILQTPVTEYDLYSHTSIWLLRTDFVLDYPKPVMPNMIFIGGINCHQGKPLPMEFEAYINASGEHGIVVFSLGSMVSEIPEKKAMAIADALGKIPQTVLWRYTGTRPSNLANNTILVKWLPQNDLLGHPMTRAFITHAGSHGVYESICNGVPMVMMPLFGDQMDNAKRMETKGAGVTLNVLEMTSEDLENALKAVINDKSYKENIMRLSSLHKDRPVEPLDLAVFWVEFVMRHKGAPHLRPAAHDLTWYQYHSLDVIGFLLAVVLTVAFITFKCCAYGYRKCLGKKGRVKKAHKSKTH

[7] = target: T2, UDP-glucuronosyltransferase 1A8 (Homo sapiens, UniProt Q9HAW9); assay: Drug metabolism assessed as human recombinant UGT1A8-mediated irilone-O-4'-monoglucuronide formation at 25 uM incubated for 5 mins prior to UDPGA addition measured after 90 mins by HPLC-DAD analysis; format: ADME; conditions: recombinant enzyme, 1.5 h
T2 sequence (Q9HAW9 whole entry): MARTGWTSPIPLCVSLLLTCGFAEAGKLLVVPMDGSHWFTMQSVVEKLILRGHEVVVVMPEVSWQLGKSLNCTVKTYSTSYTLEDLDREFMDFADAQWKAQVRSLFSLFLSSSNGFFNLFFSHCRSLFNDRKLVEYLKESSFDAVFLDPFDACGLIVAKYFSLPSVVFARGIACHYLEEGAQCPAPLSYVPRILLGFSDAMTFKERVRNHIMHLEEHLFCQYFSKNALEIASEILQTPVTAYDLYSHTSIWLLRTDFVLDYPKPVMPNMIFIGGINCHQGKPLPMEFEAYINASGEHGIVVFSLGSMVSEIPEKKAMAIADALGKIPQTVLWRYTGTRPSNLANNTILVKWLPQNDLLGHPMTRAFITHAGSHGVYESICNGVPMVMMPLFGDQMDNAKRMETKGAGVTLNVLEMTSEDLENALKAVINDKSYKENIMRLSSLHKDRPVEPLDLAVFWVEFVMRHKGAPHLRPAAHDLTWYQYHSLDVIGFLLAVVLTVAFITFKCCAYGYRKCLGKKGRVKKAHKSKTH

[8] = target: T2, UDP-glucuronosyltransferase 1A8; assay: Substrate inhibition of human recombinant UGT1A8 assessed as IRI-O-4'-monoglucuronide formation incubated for 5 mins prior to UDPGA addition measured after 90 mins by Eadie-Hoftsee plot analysis; format: ADME
[9] = target: T3, UDP-glucuronosyltransferase 1A10 (Homo sapiens, UniProt Q9HAW8); assay: Substrate inhibition of human recombinant UGT1A10 assessed as IRI-O-4'-monoglucuronide formation incubated for 5 mins prior to UDPGA addition measured after 90 mins by Eadie-Hoftsee plot analysis; format: ADME
T3 sequence (Q9HAW8 whole entry): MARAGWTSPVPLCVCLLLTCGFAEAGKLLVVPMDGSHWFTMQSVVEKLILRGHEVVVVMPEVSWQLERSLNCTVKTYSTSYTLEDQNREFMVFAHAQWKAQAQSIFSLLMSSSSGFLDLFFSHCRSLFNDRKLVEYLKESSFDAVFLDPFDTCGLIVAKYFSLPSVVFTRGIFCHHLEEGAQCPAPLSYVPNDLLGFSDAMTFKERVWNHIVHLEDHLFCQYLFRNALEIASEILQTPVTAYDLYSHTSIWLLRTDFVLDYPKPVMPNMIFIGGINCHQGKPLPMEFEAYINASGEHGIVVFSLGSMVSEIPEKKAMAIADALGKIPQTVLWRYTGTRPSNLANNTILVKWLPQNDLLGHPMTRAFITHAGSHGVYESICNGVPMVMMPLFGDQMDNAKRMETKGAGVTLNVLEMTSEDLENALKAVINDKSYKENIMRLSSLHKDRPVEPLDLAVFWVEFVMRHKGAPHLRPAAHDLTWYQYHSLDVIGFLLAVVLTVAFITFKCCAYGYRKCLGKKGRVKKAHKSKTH

CLH [1]: 48500 µL/min/mg | Km [2]: 9.8 µM | Vmax [2]: 0.43 nmol/mg/min | Ki [3]: 65.3 µM | Ki [4]: 183 µM | Km [5]: 64.7 µM | Vmax [5]: 0.34 nmol/mg/min | Drug metabolism [6]: metabolite_detected | Drug metabolism [7]: metabolite_detected | Ki [8]: 23.4 µM | Ki [9]: 121 µM
Structure (SMILES): O=c1c(-c2ccc(O)cc2)coc2cc3c(c(O)c12)OCO3

From ChEMBL document CHEMBL3525955, “Glucuronidation of the red clover isoflavone irilone by liver microsomes from different species and human UDP-glucuronosyltransferases” (Drug Metab Dispos, 2011)
